From patent US20260069558A1, “RXFP1 MODULATORS FOR TREATING RESISTANT HYPERTENSION OR HEART FAILURE WITH PULMONARY HYPERTENSION” (ASTRAZENECA AB, priority 2022, published 2026) come the findings set out here.

Values after ≈ are worked out from the molar mass of the structure shown. Bounds are passed on as bounds.

One data set addresses T1, human RXFP1 (Homo sapiens, UniProt Q9HBX9).
T1 construct: expressed in transfected cells; host or cells: Jump-In T-REx CHO-K1 cells (ThermoFisher)
T1 sequence (Q9HBX9 1-757): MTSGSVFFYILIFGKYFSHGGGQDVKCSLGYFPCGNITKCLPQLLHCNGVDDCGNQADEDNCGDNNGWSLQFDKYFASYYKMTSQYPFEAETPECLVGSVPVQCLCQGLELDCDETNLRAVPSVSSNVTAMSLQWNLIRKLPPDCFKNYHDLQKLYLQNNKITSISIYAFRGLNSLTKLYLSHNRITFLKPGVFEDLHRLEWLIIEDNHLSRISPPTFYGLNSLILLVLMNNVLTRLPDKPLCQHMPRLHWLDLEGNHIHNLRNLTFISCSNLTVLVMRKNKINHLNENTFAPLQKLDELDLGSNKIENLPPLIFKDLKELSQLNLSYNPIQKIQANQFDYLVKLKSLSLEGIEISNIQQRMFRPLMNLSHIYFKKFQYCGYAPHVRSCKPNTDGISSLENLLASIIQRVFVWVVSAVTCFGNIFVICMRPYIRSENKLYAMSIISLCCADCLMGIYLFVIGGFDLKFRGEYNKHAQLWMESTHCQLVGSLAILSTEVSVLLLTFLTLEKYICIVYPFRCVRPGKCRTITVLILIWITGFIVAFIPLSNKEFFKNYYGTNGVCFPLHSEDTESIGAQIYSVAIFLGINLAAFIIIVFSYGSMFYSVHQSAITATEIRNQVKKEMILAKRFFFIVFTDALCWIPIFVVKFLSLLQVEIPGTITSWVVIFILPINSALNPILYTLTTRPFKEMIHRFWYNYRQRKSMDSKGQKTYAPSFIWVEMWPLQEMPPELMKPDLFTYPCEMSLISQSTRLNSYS
Put plainly: RXFP1 Hu cAMP (Test A), HTRF cAMP production. Format: cell-based. Conditions: for Test A Sinf: fitted efficacy at infinite concentration, normalized to response of 1 nM relaxin, arithmetic mean. From the text:
To screen for modulators of hRXFP1, an assay identifying compounds that stimulate cAMP production via the Gs-coupled hRXFP1 receptor was used. cAMP HiRange HTRF kit (available from CisBio Bioassays, France; catalogue number 62AM6PEJ) was employed in large according to manufacturer's recommendations for detection of cAMP. The HTRF method is a competitive immunoassay between native cAMP produced by cells and cAMP labeled with the dye d2. The tracer binding is visualized with a cryptate labeled antibody for cAMP and the signal is thus inversely proportional to the amount of produced cAMP.
Cells: Jump-In™ T-REx™ CHO-K1 Cells (ThermoFisher) stably transfected with human RXFP1 was employed. Cells were induced to express human RXFP1 by treatment with 10 ng/ml doxycycline for 24 h. Cells were then cryopreserved for long term storage.
HTRF detection reagents: cAMP-d2 and anti-cAMP cryptate reconstituted according to CisBio instructions were diluted 1:40 in lysis buffer provided with the HTRF-kit.
Using a cAMP standard curve, HTRF data was converted to amount cAMP produced in the samples which was subsequentially used for calculation of concentration responses.
Concentration response data were fitted with a four parameter logistic fit, the Hill equation.
Where the assay was run multiple times for the same compound, the geometric mean is reported.
Sinf is the fitted activity level, efficacy, at infinite concentration of test compound. To facilitate comparison of efficacy data, efficacy was normalized to % effect of the response stimulated by a saturating concentration of relaxin (1 nM). Where the assay was run multiple times for the same compound, the arithmetic mean is reported.
A general note: In TR-FRET formats the signal depends on donor and acceptor labels being close together.

Data set [1] in a line: Rat Hepatocyte Stability (Test E). Conditions: rat hepatocytes; geometric mean. Format: in vitro ADME. As to the method:
Rat Hepatocyte Stability (Test E)
The assay was conducted according to the Rat Hepatocyte Stability Assay described in pages 170-174 of Wernevik, J. et al., “A Fully Integrated Assay Panel for Early Drug Metabolism and Pharmacokinetics Profiling”, Assay and Drug Development Technologies, 2020, 18(4), 157-179. Data are reported in Table 1 as mean Clint (μl/min/10^6 cells). Where the assay was run multiple times for the same compound, the geometric mean is reported.

A short description of data set [2]: Human Hepatocyte Stability (Test D). Format: in vitro ADME. Conditions: cryopreserved pooled human hepatocytes (LiverPool 10-Donor), geometric mean. The method, then:
Human Hepatocyte Stability (Test D)
Prepare 10 mM stock solutions of compound and control compounds in appropriate solvent (DMSO). Place incubation medium (L-15 Medium) in a 37° C. water bath, and allow warming for at least 15 minutes prior to use. • 2. […] Remove a vial of cryopreserved (less than −150° C.) human hepatocytes (LiverPool™ 10-Donor Human hepatocytes obtained from Bioreclamation IVT (Product No. S01205)) from storage, ensuring that vials remain at cryogenic temperatures until thawing process ensues. As quickly as possible, thaw the cells by placing the vial in a 37° C. water bath and gently shaking the vials. Vials should remain in water bath until all ice crystals have dissolved and are no longer visible. After thawing is complete, spray vial with 70% ethanol, transfer the vial to a bio-safety cabinet. • 5. Open the vial and pour the contents into the 50 mL conical tube containing thawing medium. Place the 50 mL conical tube into a centrifuge and spin at 100 g for 10 minutes (room temperature). […] Using Cellometer® Vision, count cells and determine the viable cell density. […]
All calculations were carried out using Microsoft Excel. Peak areas were determined from extracted ion chromatograms. In vitro intrinsic clearance (in vitro Clint, in μL/min/10^6 cells) of parent compound was determined by regression analysis of the Ln percent parent disappearance vs. time curve.

Another data set is described as follows: Solubility (Test F). Conditions: arithmetic mean. Format: physicochemical. As to the method: The assay was conducted according to the Solubility Assay described in pages 164-167 of Wemevik, J. et al., “A Fully Integrated Assay Panel for Early Drug Metabolism and Pharmacokinetics Profiling”, Assay and Drug Development Technologies, 2020, 18(4), 157-179. Where the assay was run multiple times for the same compound, the arithmetic mean is reported.

A short description of data set [3]: Human Plasma Protein Binding (Test B). The format is in vitro ADME. Particulars: fraction unbound (fu), arithmetic mean. As to the method: Human Plasma Protein Binding (Test B)
The assay was conducted according to the Human Plasma Protein Binding Assay described in pages 167-170 of Wemevik, J. et al., “A Fully Integrated Assay Panel for Early Drug Metabolism and Pharmacokinetics Profiling”, Assay and Drug Development Technologies, 2020, 18(4), 157-179. Data are reported in Table 1 as fraction unbound (fu) (% free). Where the assay was run multiple times for the same compound, the arithmetic mean is reported.

Data set [4] in a line: Human Liver Microsomal Stability (Test C). The format is in vitro ADME. Conditions: human liver microsomes; arithmetic mean. The method, then:
Human Liver Microsomal Stability (Test C)
The assay was conducted according to the Human Liver Microsome Stability Assay described in pages 170-174 of Wemevik, J. et al., “A Fully Integrated Assay Panel for Early Drug Metabolism and Pharmacokinetics Profiling”, Assay and Drug Development Technologies, 2020, 18(4), 157-179. Data are reported in Table 1 as CLint (μl/min/mg protein).
Where the assay was run multiple times for the same compound, the arithmetic mean is reported.
On the technique in general: Liver microsomes are vesicles of endoplasmic reticulum, rich in cytochrome P450 enzymes.

`COc1cc(F)c(O[C@H]2CC[C@@](C)(C(=O)O)CC2)cc1C(=O)N[C@@H]1[C@H]2CC[C@H](C2)[C@@H]1C(=O)NCC1CCC1` [Example 2, (1S,4s)-4-(5-(((1S,2R,3S,4R)-3-((cyclobutylmethyl)carbamoyl)bicyclo[2.2.1]heptan-2-yl)carbamoyl)-2-fluoro-4-methoxyphenoxy)-1-methylcyclohexane-1-carboxylic acid] gave an EC50 on human RXFP1 (cAMP production, Jump-In T-REx CHO-K1 cells stably transfected with human RXFP1, geometric mean) of 0.23 µM. The “Test A Sinf” value on human RXFP1 came out at 101%.
Regarding `COc1cc(C#N)c(O[C@H]2CC[C@@](C)(C(=O)O)CC2)cc1C(=O)N[C@@H]1[C@H]2CC[C@H](C2)[C@@H]1C(=O)NCC1CC1` [Example 3, (1S,4s)-4-(2-Cyano-5-(((1S,2R,3S,4R)-3-((cyclopropylmethyl)carbamoyl)bicyclo[2.2.1]heptan-2-yl)carbamoyl)-4-methoxyphenoxy)-1-methylcyclohexane-1-carboxylic acid], the “Test A Sinf” value on human RXFP1 stood at 97%.
For `COc1cc(C#N)c(O[C@H]2CC[C@@](C)(C(=O)O)CC2)cc1C(=O)N[C@@H]1[C@H]2CC[C@H](C2)[C@@H]1C(=O)NCC(C)(C)C` [Example 5, (1S,4s)-4-(2-cyano-4-methoxy-5-(((1S,2R,3S,4R)-3-(neopentylcarbamoyl)bicyclo[2.2.1]heptan-2-yl)carbamoyl)phenoxy)-1-methylcyclohexane-1-carboxylic acid], the hepatocyte CLint in data set [1] is 15 µL/min/1e6 cells. Moreover, the hepatocyte CLint at 1 µM in data set [2] is less than 1.2 µL/min/1e6 cells. This compound also yielded a solubility in “Solubility (Test F)” of 910 µM (≈ 491 µg/mL). In addition, the “Test B Human Plasma Protein Binding (% free)” value in data set [3] was determined as 12 % free. The same compound showed a microsomal CLint in data set [4] of less than 3 µL/min/mg.

Usually EC50 stands for the concentration giving half of the maximal effect. High values mean weaker potency, low ones greater potency. What is called hepatocyte CLint is the rate of metabolic loss divided by the concentration. A higher hepatocyte CLint goes with faster metabolism. By solubility is commonly meant the dissolved amount per volume that the medium holds. Low values mean little dissolved substance, high ones much dissolved substance. The microsomal CLint is a measure of how fast metabolising enzymes remove a compound, apart from limits set by blood flow. A higher microsomal CLint goes with rapid turnover.
